From publication PMC11897524 (Frontiers in Pharmacology, 2025)

Legend:
[1] = test system: p-STAT3 and c-myc protein; assay: Western blot on xenograft tumor tissues; assay type: in vivo, BALB/c nude mice; conditions: xenograft tumor tissue
Procedure: For the assessment of protein expression levels, Western blot analysis was conducted following a standardized protocol ([Zhou et al., 2022]). The CAKI-2 cells were initially rinsed with PBS to remove any residual culture medium. Subsequently, cells were lysed using a RIPA buffer supplemented with 1 mM phenylmethylsulfonyl fluoride (PMSF), and the lysate was incubated on ice for a duration of 1 h. The lysate was centrifuged at a speed of 13,000 rpm for 30 min at 4°C. Protein concentrations were quantified using a BCA protein assay kit (Beyotime, Shanghai, China), ensuring equal protein loading for each sample. Samples were then resolved by SDS-PAGE and transferred onto a polyvinylidene difluoride (PVDF) membrane. Subsequently, the membrane was blocked with 3% BSA in PBS at room temperature for 2 h and incubated overnight with the corresponding antibody at 4°C. […] The specific protein bands were visualized using ECL detection system (Tanon, Shanghai, China), and the band intensities were quantified using ImageJ software.
To further investigate the in vivo effects of BST-4, 6–8 weeks male BALB/c nude mice were obtained by Changzhou Cavens Experimental Animal Co., Ltd. (Changzhou, China). […] The tumor volume of mice was measured every 2 days and calculated according to the formula: (c × c × d)/2, where c and d represent the minimum diameter and maximum diameter, respectively. […]

[2] = target: T1, STAT5a (Homo sapiens, UniProt P42229); assay: Binding affinity to BET and STAT family members
T1 sequence (P42229 whole entry): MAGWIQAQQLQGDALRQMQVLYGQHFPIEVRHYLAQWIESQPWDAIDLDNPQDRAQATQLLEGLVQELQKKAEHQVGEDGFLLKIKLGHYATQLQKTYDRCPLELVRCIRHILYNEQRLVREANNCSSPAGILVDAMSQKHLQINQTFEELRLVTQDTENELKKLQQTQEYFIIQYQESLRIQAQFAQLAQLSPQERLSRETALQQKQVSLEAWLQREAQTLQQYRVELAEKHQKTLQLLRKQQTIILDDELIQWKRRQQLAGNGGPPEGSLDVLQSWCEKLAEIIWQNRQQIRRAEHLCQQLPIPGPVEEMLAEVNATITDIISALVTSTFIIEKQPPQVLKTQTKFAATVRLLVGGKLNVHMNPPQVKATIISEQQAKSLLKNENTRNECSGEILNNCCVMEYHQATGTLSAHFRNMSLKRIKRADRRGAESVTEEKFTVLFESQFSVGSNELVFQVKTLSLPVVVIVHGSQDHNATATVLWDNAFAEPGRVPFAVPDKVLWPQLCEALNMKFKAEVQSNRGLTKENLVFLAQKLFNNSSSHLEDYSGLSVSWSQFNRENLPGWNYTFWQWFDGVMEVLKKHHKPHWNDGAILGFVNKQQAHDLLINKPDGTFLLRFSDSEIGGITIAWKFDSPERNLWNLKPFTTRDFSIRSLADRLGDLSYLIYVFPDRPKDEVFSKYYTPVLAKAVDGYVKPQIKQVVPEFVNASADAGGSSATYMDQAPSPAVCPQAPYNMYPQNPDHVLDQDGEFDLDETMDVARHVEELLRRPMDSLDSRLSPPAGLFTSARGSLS

[3] = target: BRD4 (Homo sapiens, UniProt O60885); assay: Microscale thermophoresis (MST) assay; assay type: binding; design: purchased Abcam
Procedure: The MST experiments were performed using the Monolith NT.115 instrument. BRD4 and STAT3 proteins were labeled with the Lys labeling kit at the final concentration of 100 nM. The compounds, previously suspended in 100% DMSO, were diluted in a buffer containing 20 mM Tris·HCl (pH 7.5), 100 mM NaCl, and 3 mM DTT, achieving a final DMSO concentration of 5%. The compounds were gradient-diluted in 1:1 dilution and starting from 100 μM. The samples were loaded into MST-standard glass capillaries. All the measurements were performed in triplicate using automatically assigned 50% MST power and 20% LED power. Data analysis was performed using GraphPad Prism 7.0 software.

[4] = target: T2, STAT6 (Homo sapiens, UniProt P42226); assay: Binding affinity to BET and STAT family members
T2 sequence (P42226 whole entry): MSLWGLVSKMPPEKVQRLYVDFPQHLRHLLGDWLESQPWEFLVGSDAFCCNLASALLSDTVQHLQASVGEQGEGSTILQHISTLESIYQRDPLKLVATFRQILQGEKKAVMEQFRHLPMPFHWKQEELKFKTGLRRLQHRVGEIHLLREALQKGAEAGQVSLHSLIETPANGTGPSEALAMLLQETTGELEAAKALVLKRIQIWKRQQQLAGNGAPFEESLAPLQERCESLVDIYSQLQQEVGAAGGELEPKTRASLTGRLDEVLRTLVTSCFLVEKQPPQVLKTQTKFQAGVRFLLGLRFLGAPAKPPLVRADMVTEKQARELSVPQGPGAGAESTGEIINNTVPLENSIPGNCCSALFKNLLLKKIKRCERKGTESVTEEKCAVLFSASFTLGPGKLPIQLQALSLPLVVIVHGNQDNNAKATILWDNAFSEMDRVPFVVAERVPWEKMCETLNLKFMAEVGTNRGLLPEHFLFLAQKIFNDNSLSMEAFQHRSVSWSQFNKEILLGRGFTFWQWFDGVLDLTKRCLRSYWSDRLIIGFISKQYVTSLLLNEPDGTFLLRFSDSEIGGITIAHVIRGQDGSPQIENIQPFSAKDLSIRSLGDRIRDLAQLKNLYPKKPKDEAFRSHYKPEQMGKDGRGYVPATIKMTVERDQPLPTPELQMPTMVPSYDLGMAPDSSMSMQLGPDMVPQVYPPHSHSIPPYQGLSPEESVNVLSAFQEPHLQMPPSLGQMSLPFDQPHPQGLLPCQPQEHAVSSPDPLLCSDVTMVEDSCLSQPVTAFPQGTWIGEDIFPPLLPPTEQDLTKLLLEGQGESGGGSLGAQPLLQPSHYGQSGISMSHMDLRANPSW

[5] = test system: PBMCs; assay: MTT cytotoxicity assay; assay type: cell-based; conditions: PBMC, 48 h treatment, read-out: IC50 (μM) ± SD PBMCs
Procedure: The effect of hit compounds on cytotoxicity was determined as previously reported ([Ding et al., 2020]). In brief, cells treated with the tested compounds were added with MTT reagent to form formazan crystals, and then the optical density (OD) values at 570 nm were determined after the crystals were dissolved in DMSO. […] Next, the values of IC50 of the selected compounds against more RCC cell lines were determined. The 5 × 10^3 cells in 100 μL culture medium were injected into each well of a 96-well plate and cultured overnight. Add different concentrations of compounds and incubate for 48 h. Then 100 μL of MTT (0.5 mg/mL) solution was added to the 96-well plate and maintained at 37°C for 4 h. Finally, 200 μL of DMSO was added and shaken for 10 min. The OD values at 570 nm were determined by a Synergy 4 microplate reader.

[6] = target: T1, STAT5a; assay: Inhibitory effect on BET and STAT family members; assay type: binding
Excerpt: (§1) TABLE 4 The inhibitory effect of BST-4 on other members of the BET and STAT families. | column: IC50 (μM)

[7] = target: T2, STAT6; assay: Inhibitory effect on BET and STAT family members; assay type: binding
Excerpt: as §1

[8] = target: STAT1 (Homo sapiens, UniProt P42224); assay: Inhibitory effect on BET and STAT family members; assay type: binding
Chain of STAT1 (P42224 whole entry): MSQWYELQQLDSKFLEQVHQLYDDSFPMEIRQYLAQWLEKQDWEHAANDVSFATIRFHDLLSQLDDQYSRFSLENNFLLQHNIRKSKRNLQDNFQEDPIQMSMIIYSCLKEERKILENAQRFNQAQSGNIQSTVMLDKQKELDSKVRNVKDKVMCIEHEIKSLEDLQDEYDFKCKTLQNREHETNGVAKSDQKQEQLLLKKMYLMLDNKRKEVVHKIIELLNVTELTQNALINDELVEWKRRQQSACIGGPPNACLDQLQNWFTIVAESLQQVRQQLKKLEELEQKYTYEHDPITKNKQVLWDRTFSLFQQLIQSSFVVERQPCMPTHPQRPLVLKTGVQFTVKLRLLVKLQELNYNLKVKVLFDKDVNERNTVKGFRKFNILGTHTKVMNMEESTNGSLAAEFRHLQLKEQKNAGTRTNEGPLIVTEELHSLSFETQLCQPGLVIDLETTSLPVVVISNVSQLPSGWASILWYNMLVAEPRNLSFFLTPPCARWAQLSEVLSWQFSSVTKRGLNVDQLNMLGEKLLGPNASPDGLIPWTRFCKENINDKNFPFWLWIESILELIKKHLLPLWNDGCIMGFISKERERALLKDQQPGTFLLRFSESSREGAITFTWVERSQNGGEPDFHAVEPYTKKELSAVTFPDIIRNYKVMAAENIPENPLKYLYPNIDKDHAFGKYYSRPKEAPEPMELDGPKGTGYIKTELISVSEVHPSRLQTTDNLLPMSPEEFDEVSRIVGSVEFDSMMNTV
Excerpt: as §1

[9] = target: T3, BRD3 (Homo sapiens, UniProt Q15059); assay: Inhibitory effect on BET and STAT family members; assay type: binding
T3 sequence (Q15059 whole entry): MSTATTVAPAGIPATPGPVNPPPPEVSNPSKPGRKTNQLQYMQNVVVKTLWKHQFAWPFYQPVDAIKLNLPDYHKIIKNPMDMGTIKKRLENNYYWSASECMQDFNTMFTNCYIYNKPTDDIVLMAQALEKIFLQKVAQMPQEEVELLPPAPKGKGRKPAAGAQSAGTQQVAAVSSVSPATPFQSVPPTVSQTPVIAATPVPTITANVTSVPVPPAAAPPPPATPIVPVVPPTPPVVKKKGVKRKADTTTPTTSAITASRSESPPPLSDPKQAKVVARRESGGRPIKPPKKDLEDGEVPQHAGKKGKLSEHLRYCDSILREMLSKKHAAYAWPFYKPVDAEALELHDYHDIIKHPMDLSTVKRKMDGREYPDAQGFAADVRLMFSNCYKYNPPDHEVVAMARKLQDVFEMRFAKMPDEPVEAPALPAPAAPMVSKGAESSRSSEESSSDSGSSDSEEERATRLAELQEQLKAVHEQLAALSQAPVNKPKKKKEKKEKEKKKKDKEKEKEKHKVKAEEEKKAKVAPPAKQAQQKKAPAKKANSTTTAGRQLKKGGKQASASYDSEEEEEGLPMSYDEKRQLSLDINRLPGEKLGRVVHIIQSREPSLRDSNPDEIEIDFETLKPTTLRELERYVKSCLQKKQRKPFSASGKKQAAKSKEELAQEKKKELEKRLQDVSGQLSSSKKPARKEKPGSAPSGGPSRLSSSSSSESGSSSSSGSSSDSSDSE
Excerpt: as §1

[10] = target: T4, STAT2 (Homo sapiens, UniProt P52630); assay: Inhibitory effect on BET and STAT family members; assay type: binding
T4 sequence (P52630 whole entry): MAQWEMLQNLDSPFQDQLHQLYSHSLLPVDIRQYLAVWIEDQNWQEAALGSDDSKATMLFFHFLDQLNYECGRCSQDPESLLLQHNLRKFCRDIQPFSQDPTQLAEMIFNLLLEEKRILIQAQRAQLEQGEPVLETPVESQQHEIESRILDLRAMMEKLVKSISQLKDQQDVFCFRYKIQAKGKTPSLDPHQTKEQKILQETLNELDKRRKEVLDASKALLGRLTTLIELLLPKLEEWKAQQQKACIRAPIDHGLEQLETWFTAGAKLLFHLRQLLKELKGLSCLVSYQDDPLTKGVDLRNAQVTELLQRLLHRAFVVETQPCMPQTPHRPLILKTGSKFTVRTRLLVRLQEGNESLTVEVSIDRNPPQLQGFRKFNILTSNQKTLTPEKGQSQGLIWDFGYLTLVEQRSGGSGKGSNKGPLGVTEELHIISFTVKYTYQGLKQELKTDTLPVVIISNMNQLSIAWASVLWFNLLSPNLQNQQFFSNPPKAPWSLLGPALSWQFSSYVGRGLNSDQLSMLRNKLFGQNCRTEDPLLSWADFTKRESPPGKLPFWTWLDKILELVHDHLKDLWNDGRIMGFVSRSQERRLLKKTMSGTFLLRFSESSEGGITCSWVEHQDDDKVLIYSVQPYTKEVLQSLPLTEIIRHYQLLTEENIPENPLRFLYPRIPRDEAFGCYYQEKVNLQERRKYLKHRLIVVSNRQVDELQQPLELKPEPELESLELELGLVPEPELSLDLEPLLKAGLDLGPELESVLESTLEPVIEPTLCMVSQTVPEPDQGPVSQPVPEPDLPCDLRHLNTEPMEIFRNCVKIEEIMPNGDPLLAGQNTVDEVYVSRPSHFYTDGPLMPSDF
Excerpt: as §1

[11] = target: STAT4 (Homo sapiens, UniProt Q14765); assay: Inhibitory effect on BET and STAT family members; assay type: binding
Excerpt: as §1

[12] = target: T4, STAT2; assay: Binding affinity to BET and STAT family members
[13] = target: T3, BRD3; assay: Binding affinity to BET and STAT family members
[14] = target: BRD2 (Homo sapiens, UniProt P25440); assay: Binding affinity to BET and STAT family members
Chain of BRD2 (P25440 whole entry): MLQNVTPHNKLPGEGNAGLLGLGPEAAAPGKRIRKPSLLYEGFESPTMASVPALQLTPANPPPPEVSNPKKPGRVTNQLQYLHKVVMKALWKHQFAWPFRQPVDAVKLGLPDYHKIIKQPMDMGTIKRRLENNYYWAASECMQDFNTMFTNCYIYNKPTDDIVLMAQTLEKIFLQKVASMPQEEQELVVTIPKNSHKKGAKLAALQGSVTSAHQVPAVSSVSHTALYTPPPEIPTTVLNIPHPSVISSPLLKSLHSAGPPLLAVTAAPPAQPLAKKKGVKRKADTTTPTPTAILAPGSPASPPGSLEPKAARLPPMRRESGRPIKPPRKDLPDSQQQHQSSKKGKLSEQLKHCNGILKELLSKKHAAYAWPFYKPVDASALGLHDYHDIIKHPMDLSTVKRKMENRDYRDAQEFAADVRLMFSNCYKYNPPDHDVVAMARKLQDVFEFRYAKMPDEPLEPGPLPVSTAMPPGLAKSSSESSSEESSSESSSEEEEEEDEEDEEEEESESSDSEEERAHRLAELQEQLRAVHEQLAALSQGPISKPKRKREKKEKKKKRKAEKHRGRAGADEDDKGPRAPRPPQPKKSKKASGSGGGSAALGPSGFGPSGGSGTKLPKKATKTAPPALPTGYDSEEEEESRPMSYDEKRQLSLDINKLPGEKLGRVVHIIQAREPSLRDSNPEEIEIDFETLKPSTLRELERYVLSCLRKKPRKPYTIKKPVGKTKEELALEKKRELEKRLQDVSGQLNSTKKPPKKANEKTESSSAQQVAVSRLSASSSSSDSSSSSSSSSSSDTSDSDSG

CCS(=O)(=O)Cc1cnc(Oc2c(F)cc(F)cc2OCCCCOc2ccc(/C=C/c3cc(OC)cc(OC)c3)cc2)c(-c2cc(C)c3c(=O)[nH]ccn23)c1 [BST-4]
c-myc protein expression level in tumor tissues [1]: significantly downregulated | p-STAT3 protein expression level in tumor tissues [1]: significantly downregulated | Kd [2]: > 10 µM | BRD4 binding affinity relative to RVX-208 ([3]; Kd ratio vs RVX-208, MST): 17 fold | Kd ([3]; MST): 0.00146 ± 7e-05 µM | Kd [4]: > 10 µM | IC50 [5]: > 10 µM | IC50 [6]: > 10 µM | IC50 [7]: > 10 µM | IC50 [8]: > 10 µM | IC50 [9]: > 10 µM | IC50 [10]: > 10 µM | IC50 [11]: > 10 µM | Kd [12]: > 10 µM | Kd [13]: > 10 µM | Kd [14]: > 10 µM
